Measured values: ChEMBL document CHEMBL1201862, “PubChem BioAssay data set” (2004)
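96-well plates; 48 h exposure; 5 concentrations. Endpoints by linear interpolation between flanking doses. Not reached: highest tested concentration assigned. GI50 marks 50% less growth.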 Calls of active or inactive are those of the source. No stated cut-off is given here; in the data, active = GI50 up to about 1.1 µM and inactive = higher.

How the values were obtained:
Experiment in all cases: growth of human tumour cells (NCI), 48 h
[1] = tested on: T47D
[2] = tested on: NCI-H23
[3] = tested on: RPMI-8226
[4] = tested on: SNB-19
[5] = tested on: SF-295
[6] = tested on: A498
[7] = tested on: CAKI-1
[8] = tested on: 786-0
[9] = tested on: HT-29
[10] = tested on: DU-145
[11] = tested on: UACC-257
[12] = tested on: U-251
[13] = tested on: HL-60
[14] = tested on: SF-268
[15] = tested on: UACC-62
[16] = tested on: COLO 205
[17] = tested on: NCI-H522
[18] = tested on: Malme-3M
[19] = tested on: KM12
[20] = tested on: TK-10
[21] = tested on: OVCAR-4
[22] = tested on: HCC 2998
[23] = tested on: MDA-MB-435
[24] = tested on: RXF 393
[25] = tested on: IGROV-1
[26] = tested on: NCI-H460
[27] = tested on: SW-620
[28] = tested on: PC-3
[29] = tested on: ACHN
[30] = tested on: HCT-116
[31] = tested on: SN12C
[32] = tested on: HCT-15
[33] = tested on: SK-MEL-5
[34] = tested on: UO-31
[35] = tested on: OVCAR-5
[36] = tested on: EKVX
[37] = tested on: Hs-578T
[38] = tested on: HOP-62
[39] = tested on: NCI/ADR-RES
[40] = tested on: A549
[41] = tested on: HOP-92
[42] = tested on: OVCAR-3
[43] = tested on: M14
[44] = tested on: K562
[45] = tested on: MCF7
[46] = tested on: MDA-N
[47] = tested on: LOX IMVI
[48] = tested on: SR
[49] = tested on: SK-MEL-28
[50] = tested on: NCI-H226
[51] = tested on: SK-OV-3
[52] = tested on: OVCAR-8
[53] = tested on: SF-539
[54] = tested on: SNB-75
[55] = tested on: SK-MEL-2
[56] = tested on: MDA-MB-231
[57] = tested on: MOLT-4
[58] = tested on: CCRF-CEM

Measured: GI50

CCOP(=O)(OCC)C1(O)CC(n2cc(C)c(=O)[nH]c2=O)OC1CO (stereo unspecified)
> 100 µM: [32]
inactive: [1] > 100 µM | [2] > 100 µM | [3] > 100 µM | [4] > 100 µM | [5] > 100 µM | [6] > 100 µM | [7] > 100 µM | [8] > 100 µM | [9] > 100 µM | [10] > 100 µM | [11] > 100 µM | [12] > 100 µM | [13] > 100 µM | [14] > 100 µM | [15] > 100 µM | [16] > 100 µM | [17] > 100 µM | [18] > 100 µM | [19] > 100 µM | [20] > 100 µM | [21] > 100 µM | [22] > 100 µM | [23] > 100 µM | [24] > 100 µM | [25] > 100 µM | [26] > 100 µM | [27] > 100 µM | [28] > 100 µM | [29] > 100 µM | [30] > 100 µM | [31] > 100 µM | [33] > 100 µM | [34] > 100 µM | [35] > 100 µM | [36] > 100 µM | [37] > 100 µM | [38] > 100 µM | [39] > 100 µM | [40] > 100 µM | [41] > 100 µM | [42] > 100 µM | [43] > 100 µM | [44] > 100 µM | [45] > 100 µM | [46] > 100 µM | [47] > 100 µM | [48] > 100 µM | [49] > 100 µM | [50] > 100 µM | [51] > 100 µM | [52] > 100 µM | [53] > 100 µM | [54] > 100 µM | [55] > 100 µM

CC(=O)c1cc2ccccc2[n+]([O-])c1N
inactive: [1] > 100 µM | [56] > 100 µM | [2] > 100 µM | [5] > 100 µM | [6] > 100 µM | [7] > 100 µM | [8] > 100 µM | [9] > 100 µM | [10] > 100 µM | [11] > 100 µM | [12] > 100 µM | [13] > 100 µM | [14] > 100 µM | [15] > 100 µM | [16] > 100 µM | [17] > 100 µM | [18] > 100 µM | [19] > 100 µM | [20] > 100 µM | [21] > 100 µM | [22] > 100 µM | [23] > 100 µM | [24] > 100 µM | [25] > 100 µM | [26] > 100 µM | [28] > 100 µM | [29] > 100 µM | [30] > 100 µM | [31] > 100 µM | [33] > 100 µM | [35] > 100 µM | [36] > 100 µM | [37] > 100 µM | [38] > 100 µM | [39] > 100 µM | [40] > 100 µM | [41] > 100 µM | [42] > 100 µM | [43] > 100 µM | [57] > 100 µM | [58] > 100 µM | [45] > 100 µM | [46] > 100 µM | [47] > 100 µM | [48] > 100 µM | [49] > 100 µM | [50] > 100 µM | [51] > 100 µM | [52] > 100 µM | [53] > 100 µM | [55] > 100 µM
> 100 µM: [32]

CC1(C)Oc2ccc3c(=O)cc(-c4ccc(F)cc4)oc3c2C1C(=O)O (stereo unspecified)
inactive: [1] > 100 µM | [56] > 100 µM | [2] > 100 µM | [5] > 100 µM | [6] > 100 µM | [7] 23.3 µM | [8] > 100 µM | [9] > 100 µM | [10] > 100 µM | [11] > 100 µM | [12] > 100 µM | [14] > 100 µM | [15] > 100 µM | [16] > 100 µM | [17] > 100 µM | [18] > 100 µM | [20] > 100 µM | [22] > 100 µM | [23] > 100 µM | [24] > 100 µM | [25] > 100 µM | [28] > 100 µM | [30] > 100 µM | [31] > 100 µM | [33] > 100 µM | [35] > 100 µM | [36] > 100 µM | [37] > 100 µM | [38] > 100 µM | [39] > 100 µM | [40] > 100 µM | [42] > 100 µM | [43] > 100 µM | [57] > 100 µM | [58] > 100 µM | [44] > 100 µM | [45] > 100 µM | [46] > 100 µM | [48] > 100 µM | [50] > 100 µM | [51] > 100 µM | [52] > 100 µM | [53] > 100 µM | [55] > 100 µM
